This data set is described as follows: Solubility of Sembragiline in media at 37° C. Particulars: for solubility at 4 h: read-out: Solubility of Sembragiline After 4 h. In kind it is physicochemical.

In brackets after ≈: the same amount, converted by molar mass. Read-outs that look alike come from different tables or passages of the source.

Results on 1 compound are retold here after patent US10702479B2, “Pharmaceutical formulation comprising sembragiline” (Hoffmann-La Roche Inc., priority 2015, dated 2020).

One may read the solubility as the dissolved amount per volume that the medium holds.

For the compound `CC(=O)N[C@H]1CC(=O)N(c2ccc(OCc3cccc(F)c3)cc2)C1` [Sembragiline, N-[(3S)-1-[4-[(3-fluorophenyl)methoxy]phenyl]-5-oxo-pyrrolidin-3-yl]acetamide], the “Dose Solubility Ratio” value came to 25 (1 mg, Water); 25 (1 mg, pH 1, HCl 0.1N); 25 (1 mg, pH 4.5, 50 mM acetate buffer); 25 (1 mg, pH 6.8, 50 mM phosphate buffer); 25 (1 mg, pH 7.5, 50 mM phosphate buffer); 125 (5 mg, Water). The “Dose Solubility Ratio” value came to 125 (5 mg, pH 1, HCl 0.1N); 125 (5 mg, pH 4.5, 50 mM acetate buffer); 125 (5 mg, pH 6.8, 50 mM phosphate buffer); 125 (5 mg, pH 7.5, 50 mM phosphate buffer). Further, the solubility at 4 h was 40 µg/mL (≈ 117 µM) (0.1 N HCl, simulated gastric fluid, pH 1, HCl 0.1N); 40 µg/mL (≈ 117 µM) (Water); 40 µg/mL (≈ 117 µM) (aqueous buffer, pH 4.5, 50 mM acetate buffer); 40 µg/mL (≈ 117 µM) (aqueous buffer, pH 6.8, 50 mM phosphate buffer); 40 µg/mL (≈ 117 µM) (aqueous buffer, pH 7.5, 50 mM phosphate buffer). The “Solubility of Sembragiline 250 mL” value (Water) turned out to be 10 mg; the “Solubility of Sembragiline 250 mL” value (pH 1, HCl 0.1N) is 10 mg; the “Solubility of Sembragiline 250 mL” value (pH 4.5, 50 mM acetate buffer) was found to be 10 mg; the “Solubility of Sembragiline 250 mL” value (pH 6.8, 50 mM phosphate buffer) was found to be 10 mg; the “Solubility of Sembragiline 250 mL” value (pH 7.5, 50 mM phosphate buffer) was found to be 10 mg.
